Data as given in the NIST ThermoML archive (doi:10.1021/je049534w).
± gives the expanded uncertainty stated by the source.

Settings: Liquid; for speed of sound: Linear variable-path acoustic interferometer

CCCCn1cc[n+](C)c1.F[B-](F)(F)F [1-butyl-3-methylimidazolium tetrafluoroborate]
Settings | mass density [kg/m3] | speed of sound [m/s]
283.15 K, 100 kPa | – | 1599.5 ± 6.9
283.15 K, 4956 kPa | – | 1612.5 ± 6.9
283.15 K, 9954 kPa | – | 1626.2 ± 7
283.15 K, 20130 kPa | – | 1653.1 ± 7.1
283.15 K, 30003 kPa | – | 1678.3 ± 7.2
283.15 K, 44948 kPa | – | 1714.7 ± 7.3
283.15 K, 59705 kPa | – | 1749 ± 7.5
283.15 K, 79788 kPa | – | 1793 ± 7.6
283.15 K, 99235 kPa | – | 1833.6 ± 7.8
283.15 K, 124380 kPa | – | 1882.9 ± 8
283.15 K, 151416 kPa | – | 1932.2 ± 8.2
293.15 K, 100 kPa | – | 1570.2 ± 6.8
293.15 K, 5094 kPa | – | 1584 ± 6.8
293.15 K, 10075 kPa | – | 1597.7 ± 6.9
293.15 K, 20080 kPa | – | 1624.4 ± 7
293.15 K, 59673 kPa | – | 1721 ± 7.3
293.15 K, 98994 kPa | – | 1806.1 ± 7.7
293.15 K, 151068 kPa | – | 1907.3 ± 8.1
298.34 K, 100 kPa | 1205.03 ± 1.4 | –
298.34 K, 700 kPa | 1205.32 ± 1.4 | –
298.34 K, 5280 kPa | 1207.44 ± 1.4 | –
298.34 K, 10600 kPa | 1209.87 ± 1.5 | –
298.34 K, 15920 kPa | 1212.24 ± 1.6 | –
298.34 K, 20540 kPa | 1214.26 ± 1.7 | –
298.34 K, 25000 kPa | 1216.18 ± 1.8 | –
298.34 K, 30710 kPa | 1218.62 ± 1.9 | –
298.34 K, 35190 kPa | 1220.47 ± 2.1 | –
298.34 K, 40660 kPa | 1222.73 ± 2.2 | –
298.34 K, 44370 kPa | 1224.21 ± 2.4 | –
298.34 K, 49660 kPa | 1226.32 ± 2.5 | –
298.34 K, 54340 kPa | 1228.16 ± 2.7 | –
298.34 K, 59230 kPa | 1230.05 ± 2.9 | –
303.15 K, 100 kPa | – | 1544.9 ± 6.7
303.15 K, 5080 kPa | – | 1558.6 ± 6.7
303.15 K, 10091 kPa | – | 1572.5 ± 6.8
303.15 K, 20063 kPa | – | 1599.5 ± 6.9
303.15 K, 59767 kPa | – | 1697 ± 7.2
303.15 K, 99007 kPa | – | 1782.6 ± 7.6
303.15 K, 124609 kPa | – | 1834 ± 7.8
303.23 K, 100 kPa | 1201.29 ± 1.4 | –
303.23 K, 8780 kPa | 1205.3 ± 1.5 | –
303.23 K, 11170 kPa | 1206.4 ± 1.5 | –
303.23 K, 15230 kPa | 1208.22 ± 1.6 | –
303.23 K, 20270 kPa | 1210.43 ± 1.7 | –
303.23 K, 24890 kPa | 1212.44 ± 1.8 | –
303.23 K, 30670 kPa | 1214.92 ± 1.9 | –
303.23 K, 34770 kPa | 1216.66 ± 2 | –
303.23 K, 40020 kPa | 1218.85 ± 2.2 | –
303.23 K, 44310 kPa | 1220.61 ± 2.3 | –
303.23 K, 49500 kPa | 1222.73 ± 2.5 | –
303.23 K, 54490 kPa | 1224.75 ± 2.7 | –
303.23 K, 59820 kPa | 1226.85 ± 2.9 | –
313.01 K, 100 kPa | 1194.59 ± 1.4 | –
313.01 K, 4130 kPa | 1196.19 ± 1.4 | –
313.01 K, 10180 kPa | 1198.82 ± 1.5 | –
313.01 K, 15650 kPa | 1201.26 ± 1.6 | –
313.01 K, 21300 kPa | 1203.75 ± 1.7 | –
313.01 K, 24580 kPa | 1205.19 ± 1.7 | –
313.01 K, 30110 kPa | 1207.62 ± 1.9 | –
313.01 K, 35390 kPa | 1209.88 ± 2 | –
313.01 K, 44700 kPa | 1213.84 ± 2.3 | –
313.01 K, 49720 kPa | 1215.92 ± 2.5 | –
313.01 K, 54430 kPa | 1217.91 ± 2.6 | –
313.01 K, 59450 kPa | 1219.95 ± 2.8 | –
313.15 K, 100 kPa | – | 1525.2 ± 6.6
313.15 K, 5091 kPa | – | 1539.3 ± 6.6
313.15 K, 10185 kPa | – | 1554 ± 6.7
313.15 K, 20070 kPa | – | 1581 ± 6.8
313.15 K, 59719 kPa | – | 1679.3 ± 7.2
313.15 K, 99014 kPa | – | 1765.8 ± 7.5
313.15 K, 123975 kPa | – | 1816.6 ± 7.7
313.15 K, 151204 kPa | – | 1870 ± 7.9
322.85 K, 100 kPa | 1187.85 ± 1.4 | –
322.85 K, 3730 kPa | 1189.5 ± 1.4 | –
322.85 K, 6220 kPa | 1190.68 ± 1.4 | –
322.85 K, 10020 kPa | 1192.47 ± 1.5 | –
322.85 K, 14870 kPa | 1194.68 ± 1.5 | –
322.85 K, 20450 kPa | 1197.2 ± 1.6 | –
322.85 K, 25400 kPa | 1199.38 ± 1.7 | –
322.85 K, 31090 kPa | 1201.87 ± 1.9 | –
322.85 K, 34850 kPa | 1203.51 ± 2 | –
322.85 K, 41130 kPa | 1206.23 ± 2.1 | –
322.85 K, 44880 kPa | 1207.85 ± 2.3 | –
322.85 K, 49830 kPa | 1209.95 ± 2.4 | –
322.85 K, 54520 kPa | 1211.91 ± 2.6 | –
322.85 K, 59920 kPa | 1214.2 ± 2.7 | –
323.15 K, 100 kPa | – | 1503.4 ± 6.5
323.15 K, 4999 kPa | – | 1517.8 ± 6.5
323.15 K, 10202 kPa | – | 1533.4 ± 6.6
323.15 K, 20046 kPa | – | 1561.4 ± 6.7
323.15 K, 59977 kPa | – | 1662.1 ± 7.1
323.15 K, 99014 kPa | – | 1748.8 ± 7.5
323.15 K, 123945 kPa | – | 1798.9 ± 7.7
323.15 K, 151374 kPa | – | 1853.2 ± 7.9
332.73 K, 100 kPa | 1181.05 ± 1.4 | –
332.73 K, 4130 kPa | 1182.92 ± 1.4 | –
332.73 K, 6350 kPa | 1183.98 ± 1.4 | –
332.73 K, 11210 kPa | 1186.3 ± 1.5 | –
332.73 K, 15220 kPa | 1188.15 ± 1.5 | –
332.73 K, 20540 kPa | 1190.55 ± 1.6 | –
332.73 K, 25280 kPa | 1192.7 ± 1.7 | –
332.73 K, 30760 kPa | 1195.16 ± 1.8 | –
332.73 K, 35080 kPa | 1197.05 ± 1.9 | –
332.73 K, 40110 kPa | 1199.23 ± 2.1 | –
332.73 K, 44860 kPa | 1201.24 ± 2.2 | –
332.73 K, 49840 kPa | 1203.35 ± 2.4 | –
332.73 K, 54760 kPa | 1205.7 ± 2.5 | –
332.73 K, 59130 kPa | 1207.2 ± 2.6 | –
